The conditions of data set [1]: in water, classification taken from the European Pharmacopoeia, cited from earlier work.
A short description of data set [2]: Solubility in water (European Pharmacopoeia solubility classes).

≈ marks a conversion by molar mass, not a printed value. Where a name gives a salt, the structure may show the parent alone. Read-outs that look alike come from different tables or passages of the source.

This is an account of results in patent EP1591107A1, “Process for the selective increase of a release rate of an active material from a pharmaceutical composition” (Pfizer GmbH Arzneimittelwerk Gödecke, priority 2004, dated 2005).

One may read the solubility as the concentration that dissolves in the medium under given conditions. A lower solubility goes with little dissolved substance.

Take `COc1ccc([C@@H]2Sc3ccccc3N(CCN(C)C)C(=O)[C@@H]2OC(C)=O)cc1` [diltiazem hydrochloride]: the “solubility class according to the European Pharmacopoeia” value in data set [1] (hydrochloride) was “freely soluble”; in data set [1] (listed as Diltiazem® hydrochloride, hydrochloride) it was “very soluble”.
As to `CC(C)C[C@H](CN)CC(=O)O` [pregabalin], the “solubility class according to the European Pharmacopoeia” value in data set [1] is reported as “sparingly soluble”. Further, the “volume of water in which 1 g is soluble” value in data set [2] (1 g of active material, water) turned out to be 31 mL. Also, the “solubility class according to the definition of the European Pharmacopoeia” value in data set [2] (class derived from the printed solubility in water) is “sparingly soluble”. The molecule further came in with a solubility in data set [2] (water) of 32.1 mg/mL (≈ 202 mM).
